{"source": "patent US20260209286A1", "about": "“SEA CUCUMBER-DERIVED HOLOTOCIN PEPTIDE AND USES THEREOF” (NATIONAL MARINE BIODIVERSITY INSTITUTE OF KOREA, priority 2022, published 2026)", "key": {"[1]": {"tested_on": "kidney cell line 293T", "assay": "CCK-8 cytotoxicity assay in 293T cells", "conditions": "10, 1 and 0.1 μM, 24 and 72 hours"}, "[2]": {"tested_on": "epidermal keratinocytes HaCaT", "assay": "CCK-8 cytotoxicity assay in HaCaT cells", "conditions": "10, 1 and 0.1 μM, 24 and 72 hours"}, "[3]": {"tested_on": "Sox2", "assay": "RT-PCR of regeneration-related gene Sox2 in HaCaT skin cells", "type": "cell-based", "conditions": "1 μM, 24 hours"}, "[4]": {"tested_on": "rat hypothalamic neurons", "conditions": "cited from earlier work"}, "[5]": {"tested_on": "Oct4", "assay": "RT-PCR of regeneration-related gene Oct4 in HaCaT skin cells", "type": "cell-based", "conditions": "1 μM, 24 hours"}, "[6]": {"tested_on": "epidermal keratinocytes HaCaT"}, "[7]": {"tested_on": "kidney cell line 293T"}, "[8]": {"tested_on": "epidermal keratinocytes HaCaT", "assay": "Size of stem cell spheroids formed in HaCaT cells", "type": "cell-based", "conditions": "10, 1 and 0.1 μM, cultured 10 days", "method": "(§1) For the formation of spheroids, the cells prepared in Preparation Example 2 were cultured in Aggrewell 800 plates pretreated with an anti-Adherence rinsing solution, using a DMEM-F12 medium containing a stem cell-permissive medium supplemented with 20 ng/ml EGF, 20 ng/ml basic fibroblast growth factor (bFGf), and B27 Serum-free Supplement (50×; Invitrogen).\n(§2) After the culture period, the spheroids were observed under a microscope, and approximately 25 spheroids were measured.\n(§3) Specifically, FIGS. 5 to 8 show the results of adding the peptides prepared in Preparation Example 1 to the renal cell line 293T, and FIGS. 9 to 12 show the results of adding the same peptides to the epidermal keratinocytes HaCaT."}, "[9]": {"tested_on": "kidney cell line 293T", "assay": "Size of stem cell spheroids formed in 293T cells", "type": "cell-based", "conditions": "10, 1 and 0.1 μM, cultured 10 days", "method": "as §1, §2, §3"}}, "note": "Where two headings read alike, the source gives them in different places. Where a SMILES comes first, the peptide text is derived from it. Bridges are numbered along the chain shown (N, C = ends). Where no end group is shown, it is not given here."}
{"compound": "CC[C@H](C)[C@@H]1NC(=O)[C@H](Cc2ccccc2)NC(=O)[C@@H](N)CSSC[C@@H](C(=O)N2CCC[C@H]2C(=O)N[C@@H](CC(C)C)C(=O)NCC(N)=O)NC(=O)[C@H](CC(N)=O)NC(=O)[C@H]([C@@H](C)O)NC1=O", "note": "[Holotocin(HLT), Holotocin] (H-CFITNCPLG-NH2; disulfide 1-6)", "values": [{"measurement": "cytotoxicity / cell viability", "setting": "[1]", "value": "no changes in cytotoxicity or cell proliferation"}, {"measurement": "cytotoxicity / cell viability", "setting": "[2]", "value": "no changes in cytotoxicity or cell proliferation"}]}
{"compound": "CC[C@H](C)[C@@H]1NC(=O)[C@H](Cc2ccc(O)cc2)NC(=O)[C@@H](N)CSSC[C@@H](C(=O)N2CCC[C@H]2C(=O)N[C@@H](CC(C)C)C(=O)NCC(N)=O)NC(=O)[C@H](CC(N)=O)NC(=O)[C@H](CCC(N)=O)NC1=O", "note": "[Oxytocin(OXT), Oxytocin]", "values": [{"measurement": "expression of stemness-related gene Sox2", "setting": "[3]; HaCaT, RT-PCR", "value": "induces the expression"}, {"measurement": "cytotoxicity / cell viability", "setting": "[1]", "value": "no changes in cytotoxicity or cell proliferation"}, {"measurement": "size of spheroids", "setting": "[4]; rat hypothalamic neurons, Salehi et al. 2021", "value": "increase the size of spheroids"}, {"measurement": "expression of stemness-related gene Oct4", "setting": "[5]; HaCaT, RT-PCR", "value": "induces the expression"}, {"measurement": "cytotoxicity / cell viability", "setting": "[2]", "value": "no changes in cytotoxicity or cell proliferation"}]}
{"compound": "NC(=O)CC[C@@H]1NC(=O)[C@H](Cc2ccccc2)NC(=O)[C@H](Cc2ccc(O)cc2)NC(=O)[C@@H](N)CSSC[C@@H](C(=O)N2CCC[C@H]2C(=O)N[C@@H](CCCN=C(N)N)C(=O)NCC(N)=O)NC(=O)[C@H](CC(N)=O)NC1=O", "note": "[Vasopressin(AVP), Vasopressin]", "values": [{"measurement": "expression of stemness-related gene Sox2", "setting": "[3]", "value": "induces the expression"}, {"measurement": "cytotoxicity / cell viability", "setting": "[6]", "value": "no changes in cytotoxicity or cell proliferation"}, {"measurement": "size of spheroids", "setting": "[4]", "value": "increase the size of spheroids"}, {"measurement": "cytotoxicity / cell viability", "setting": "[7]", "value": "no changes in cytotoxicity or cell proliferation"}, {"measurement": "expression of stemness-related gene Oct4", "setting": "[5]", "value": "induces the expression"}]}
{"compound": "Octopressin (CFWTNCPVG-NH2; ends and bridges not checked; listed as Octopus vulgaris) [Octopressin(OTP)]", "values": [{"measurement": "change in the size of the stem cell spheroids (in words)", "setting": "[8]", "value": "little or no change in the size"}, {"measurement": "cytotoxicity / cell viability", "setting": "[1]", "value": "no changes in cytotoxicity or cell proliferation"}, {"measurement": "change in the size of the stem cell spheroids (in words)", "setting": "[9]", "value": "little or no change in the size"}, {"measurement": "cytotoxicity / cell viability", "setting": "[2]", "value": "no changes in cytotoxicity or cell proliferation"}]}
